Patent US11896707B2, “Cosmetic preparations comprising Daphne extracts” (ETH Zurich, priority 2018, dated 2024)

What was measured:
[1] = test system: HDFB: human dermal fibroblast; experiment: Toxicity on HDFB; assay type: cell-based; conditions: FIG. 8
Source text: (§1) Toxicity of the extracts according to example 2 was investigated. […] (LEC: lymphatic endothelial cell; HDFB: human dermal fibroblast; HaCaT: immortalized human keratinocyte; BEC: blood endothelial cell). The results are summarized in FIG. 8 and indicate its usefulness in cosmetic applications.

[2] = test system: lymphatic endothelial cell (LEC); experiment: LEC sprouting assay (LEC-covered dextran beads, sprouts per bead); assay type: cell-based
Protocol: Stimulation of the lymphatic system: Lymph vessels fulfill an important role in order to maintain the microenvironment surrounding tissue in a constant state by removing unwanted substances present in skin as well as water and protein constantly escaping from blood vessels. […] This action was tested using in vitro test methods. In particular, using a model of sprouting assay developed previously (c.f. ADD Reference SCHULZ MM ET AL., PNAS 2012: PMID 22949700), a library of plant extracts was screened for extracts inducing lymphatic endothelial cell (LEC) sprouting. The key findings were further verified and analysed to characterize the active ingredients. The advantageous effects of the plant extracts were further confirmed by conducting relevant cell proliferation assays, in vitro migration assays and LEC tube formation assays. Given the positive results in all above mentioned assays, one can deduct the positive effect of the plant extracts and the active ingredient thereof, on improving lymphatic vascular function.
After a 24 hour incubation of fluorescently labeled LEC (lymphatic endothelial cell)-covered dextran beads with 10 pg/mL of extracts from a library of 1954 plant-derived samples, sprout formation was assessed by determining the ratio of sprouts per bead. 0.1% DMSO served as a vehicle control. Each extract was tested as 1-plicate and the entire library was screened in two independent replicates.
Sprout formation was assessed by determining the ratio of sprouts per bead. 0.1% DMSO and VEGF-A (20 ng/mL) served as negative and positive controls respectively.
0.1% DMSO served as a vehicle control and VEGF-A (20 ng/mL) as a positive control.

[3] = test system: LEC: lymphatic endothelial cell; experiment: LEC proliferation in vitro; assay type: cell-based
Protocol: Selectivity was examined using D. giraldii extracts. D. giraldii extract (CH3OH) promoted endothelial cell proliferation in vitro. […] At least 2 independent experiments with n=5 were performed for each cell type. LEC: lymphatic endothelial cell; HDFB: human dermal fibroblast; HaCaT: immortalized human keratinocyte; BEC: blood endothelial cell.
Daphnetoxin induced LEC proliferation most potently at 0.03 pM reaching 247±38% of control (0.1% DMSO).

[4] = Stability test by HPLC-UV-MS analysis; assay type: physicochemical; conditions: storage in DMSO for one week at 50° C.
[5] = test system: BEC: blood endothelial cell; experiment: Toxicity on BEC; assay type: cell-based; conditions: FIG. 8
Source text: as §1

[6] = test system: lymphatic endothelial cell (LEC); experiment: Stability test: LEC sprouting activity after storage; assay type: cell-based; conditions: prolonged exposure at 4° C., 25° C. and 50° C. for one week
Source text: The D. giraldii extract and daphnetoxin were subjected to stability tests.

[7] = test system: HaCaT: immortalized human keratinocyte; experiment: Toxicity on HaCaT; assay type: cell-based; conditions: FIG. 8
Source text: as §1

[8] = test system: LEC: lymphatic endothelial cell; experiment: Toxicity on LEC; assay type: cell-based; conditions: FIG. 8
Source text: as §1

For `C=C(C)[C@]12C[C@@H](C)[C@@]34OC(c5ccccc5)(O[C@@H]1[C@@H]3[C@@H]1O[C@]1(CO)[C@@H](O)[C@]1(O)C(=O)C(C)=C[C@H]14)O2` [Daphnetoxin], the “cytotoxic effects on HDFB” value [1] was “did not evoke any cytotoxic effects”, the “LEC sprouting, sprouts/bead” value ([2]; at 100 nM, FIG. 7A) was 4.05 sprouts/bead and the “sprouting activity of HPLC fractions (HPLC-based activity profiling)” value ([2]; fraction from D. giraldii dichloromethane extract, FIG. 6) was “main active compound”. For the same molecule, the “concentration from which LEC sprouting is significantly induced” value ([2]; further experiment, 6 replicates, FIG. 7A) was at least 10 nM, the “concentration from which LEC proliferation is significantly induced” value ([3]; 6 replicates, FIG. 7B) was at least 0.003 pM and the “LEC proliferation, specificity” value ([3]; Ex. 8, FIG. 8) was “promoted lymphatic endothelial cell proliferation specifically”. The LEC proliferation ([3]; at 0.03 pM (most potent concentration), FIG. 7B) was 247±38 % of control (0.1% DMSO), the “stability by HPLC-UV-MS analysis” value [4] was “confirms stability” and the “cytotoxic effects on BEC” value [5] was “did not evoke any cytotoxic effects”. The “activity of LEC sprouting after storage” value [6] was “consistent activity of LEC sprouting”, the “cytotoxic effects on HaCaT” value [7] was “did not evoke any cytotoxic effects” and the “cytotoxic effects on LEC” value [8] was “did not evoke any cytotoxic effects”.
